From PMC4147338, “Host defense peptides for treatment of colorectal carcinoma – a comparative in vitro and in vivo analysis” (Oncotarget, 2014)

Key:
Assay type in all cases: cell-based, human
HROC24 cells [1] = test: Apoptosis/necrosis assay, YO-PRO-1/PI flow cytometry; settings: for Levels of viable HROC24 cells: 24h, higher concentrations
Method: (§1) Figure 5 Apoptosis/necrosis assay and Western blot analysis (A, B) HROC18 and HROC24 cells were exposed to increasing HDP concentrations for a period of 24 hours. Tumor cells were stained with YO-PRO-1 for detecting early and late apoptotic tumor cells. Prior to flow cytometric analysis, PI was added to detect necrotic cells, as well. (A) Representative dot plots showing HDP-treated HROC24 cells at a concentration of 5 μM. Lower right quadrant: early apoptotic cells; upper right quadrant: late apoptotic cells; upper left quadrant: necrotic cells. (B) For cell death quantification, values of background cell death (=untreated controls) were subtracted from values of HDP-treated cells. Left panel: HROC24 cell; right panel: HROC18 cells. (C, E) Representative western blot results showing HDP-treated HROC24 cells (20 μg of total protein per lane). (D, F) Quantitative analysis of BAX and HSP90 expression in HDP-treated cells was done as described in material & methods. Expression levels of untreated cells were set to be =1 and x-fold increases of HDP-exposed cells were calculated. […] Values are given as mean ± SD.
(§2) Cell death was quantified by YO-PRO-1 (Invitrogen) and PI double staining. Selected tumor cells (HROC24 and HROC18, 1 × 10^4 cells/well) were seeded in 24-well plates and incubated overnight. Thereafter, peptides were added in increasing concentrations (ranging from 0.25 μM – 12.5 μM). Untreated cells served as living control. Following a 24-hour incubation period, supernatants were collected; cells were trypsinized and washed in PBS. Cells were stained with YO-PRO-1 (final concentration: 0.2 μM) for 20 min at room temperature. Prior to flow cytometric analysis, PI was added at a final concentration of 100 μg/ml. For cell death quantification, values of background cell death (=untreated controls) were subtracted from values of HDP-treated cells.

HROC18 cells = test: as above; settings: HROC18, 24h; for total killing: background cell death subtracted
Method: as §1, §2

HCT116 cells = test: Calcein-AM cell viability staining, 24h; settings: HCT116, 24h, 0.25-12.5 μM
Method: (§3) Figure 4 HDP-mediated cytotoxicity towards tumor cells Quantitative analysis of direct cytotoxicity towards tumor cells following a 24h incubation period with increasing HDP concentrations. Viability was assessed using Calcein-AM staining. Remaining viable tumor cells were quantified in comparison to untreated controls, which were set to be =1. […] Values are given as the mean x-fold increase ± SD. *p<0.05 vs. NK11; **p<0.01 vs. NK11.
(§4) This assay is based on Calcein-acetoxymethylester (Calcein-AM; Invitrogen, Darmstadt, Germany) staining to detect viable cells within a culture. Tumor and normal (PBL) cells (1-2 × 10^4 cells/well in triplicates) were seeded in 96-well plates and incubated overnight. Thereafter, peptides were added in increasing concentrations (ranging from 0.25 μM – 12.5 μM). Untreated cells served as living cell control. Medium was removed after 1h or 24h, respectively. Calcein-AM ([…]) was added and incubated for 30 min (37°C, 5% CO2). Analysis was performed on a fluorescence multi-well plate reader (Tecan Infinite® M200, Crailsheim, Germany) at an excitation wavelength of 485 nm (emission 535 nm). For estimation of cell viability, the relative fluorescence intensities of Calcein-AM-stained non-treated cells (=live control) were set to be 1, and fluorescence intensities of samples were calculated. Data of at least three independent experiments each performed in […] are given.

HROC24 cells [2] = test: Calcein-AM cell viability staining, 24h; settings: HROC24, 24h, 0.25-12.5 μM
Method: as §3, §4

HROC113 cells = test: Calcein-AM cell viability staining, 24h; settings: HROC113, 24h, 0.25-12.5 μM
Method: as §3, §4

HROC60 cells = test: Calcein-AM cell viability staining, 24h; settings: HROC60, 24h
Method: as §3, §4

HROC107 cells = test: Calcein-AM cell viability staining, 24h; settings: HROC107, 24h, 0.25-12.5 μM
Method: as §3, §4

[3] = test system: peripheral blood lymphocytes (PBL); test: Lymphotoxicity, Calcein-AM viability of PBL; settings: PBL of six healthy donors, 24h, 0.25-12.5 μM
Method: Figure 6 Hemolysis and lymphotoxicity assays (A) Hemolytic activity of HDPs was determined by hemoglobin release from whole blood cells after 120 min incubation. Negative controls were left untreated whereas positive controls (=maximum lysis) were treated with 1% SDS. Hemolytic activity was quantified as described in the material and methods section. (B) PBLs were incubated in the presence of increasing HDP concentrations for a period of 24 hours. Viability was analyzed using Calcein-AM and quantified in comparison to untreated controls, which were set to be =1. […] Experiments were performed in triplicates. Values are given as the mean x-fold increase ± SD.
CRC cell lines HROC18, HROC24, HROC32, HROC40, HROC57, HROC60, HROC69, HROC80, HROC87, HROC107, and HROC113 were established in our lab from patients subsequent to surgical resection. […]
(§5) This assay is based on Calcein-acetoxymethylester (Calcein-AM; Invitrogen, Darmstadt, Germany) staining to detect viable cells within a culture. […] Analysis was performed on a fluorescence multi-well plate reader (Tecan Infinite® M200, Crailsheim, Germany) at an excitation wavelength of 485 nm (emission 535 nm). For estimation of cell viability, the relative fluorescence intensities of Calcein-AM-stained non-treated cells (=live control) were set to be 1, and fluorescence intensities of samples were calculated. […]

CRC tumor cell lines = test: Calcein-AM cell viability staining, short-term exposure (1h); settings: 0.25-12.5 μM, three separate experiments
Method: According to our classification, we included three PS^high (HCT116, HROC18, and HROC24), three PS^int (HROC40, HROC60, and HROC113), and two PS^low (HROC32 and HROC107) surface-exposed cell lines.
Figure 3 Short-term exposure of HDPs towards tumor cells (A) Representative pictures showing morphological changes in HROC24 cells upon HDP C7A-D21K exposure (25 μM). As a control, HROC24 cells were treated with NK11 (25 μM). (B) Quantitative analysis of direct cytotoxicity towards tumor cells. Tumor cells were treated for 1h with increasing HDP concentrations. Thereafter, viability was assessed using Calcein-AM staining. Remaining viable tumor cells were quantified in comparison to untreated controls, which were set to be =1. […] Values are given as the mean x-fold increase ± SD, *p<0.05 vs. NK11; **p<0.01 vs. NK11.
as §5

Row | Sequence | Levels of viable HROC24 cells (HROC24 cells [1]) | total killing (HROC18 cells) | Lytic activity towards tumor cells (HCT116 cells) | Lytic activity towards tumor cells (HROC24 cells [2]) | Tumor killing compared with Melittin (HROC24 cells [1]; HROC24, 24h) | Tumor killing, ranking (HROC18 cells) | Killing of tumor cells / viability (HROC113 cells) | lysis vs. control (HROC60 cells) | Killing of tumor cells / viability (HROC107 cells) | Lymphocyte viability [3] | Direct cytotoxicity / tumor cell lysis after short-term exposure (CRC tumor cell lines)
1 | KILRGVAKKIMRTFLRRISKDILTGKK [Peptide C7A, NK-2 derivative, Cys7 replaced with Ala] | 25% | up to 60% | as effective as the reference compound Mellitin | as effective as the reference compound Mellitin |  |  |  |  |  |  | 
2 | KILRGVAKKIMRTFLRRISKKILTGKK [Peptide C7A-D21K, C7A with Asp21 substituted by Lys] | 17% | 74% | as effective as the reference compound Mellitin | as effective as the reference compound Mellitin | as effective in tumor killing as Melittin | the most effective one and even slightly better than Melittin | most effective in killing these tumor cells | > 40% | most effective in killing these tumor cells |  | 
3 | KISKRILTGKK [NK11, non-toxic control peptide based on NK-2, reference compound] |  |  |  |  |  |  |  |  |  | did not affect lymphocyte viability | lack of NK11-mediated tumor cell lysis
